Here are results for ten compounds from BindingDB's records for doi:10.1016/0024-3205(85)90028-1 (Universit&Eacute, 1985).

pKi: −log10 of the molar value. Where a name gives a salt, the structure may show the parent alone.

Sequence of D(1A) dopamine receptor (P18901 whole entry): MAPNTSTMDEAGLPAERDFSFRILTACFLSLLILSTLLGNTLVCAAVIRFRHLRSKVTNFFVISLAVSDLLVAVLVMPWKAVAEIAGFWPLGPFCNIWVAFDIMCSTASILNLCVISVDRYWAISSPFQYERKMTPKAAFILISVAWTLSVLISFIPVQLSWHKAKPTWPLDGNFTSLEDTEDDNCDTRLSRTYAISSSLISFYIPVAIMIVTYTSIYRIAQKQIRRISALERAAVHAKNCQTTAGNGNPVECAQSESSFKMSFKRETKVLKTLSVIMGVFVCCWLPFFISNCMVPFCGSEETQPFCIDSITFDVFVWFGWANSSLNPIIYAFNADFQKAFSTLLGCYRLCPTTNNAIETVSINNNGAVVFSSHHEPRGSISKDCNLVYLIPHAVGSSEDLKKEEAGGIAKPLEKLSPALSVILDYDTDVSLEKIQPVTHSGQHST

The test addresses D(1A) dopamine receptor (Rattus norvegicus, UniProt P18901).
`c1ccc2c(c1)Nc1ccccc1S2` [phenothiazine]: the negative-log Ki (pKi) is less than 5.00.

On to `NC1CCc2cc(O)c(O)cc2C1` (stereo not given), for which the pKi was 5.29.

On to `O=c1[nH]c2ccccc2n1C1CCN(CCCC(c2ccc(F)cc2)c2ccc(F)cc2)CC1` [1-(1-(4,4-bis(4-fluorophenyl)butyl)piperidin-4-yl)-1H-benzo[d]imidazol-2(3H)-one], for which the pKi was 5.85.

Compound `CC(CN1c2ccccc2Sc2ccccc21)N(C)C` (stereo not drawn) [N,N,alpha-trimethyl-10H-phenothiazine-10-ethanamine] showed a pKi of 5.75.

Compound `O=c1[nH]c2ccccc2n1CCCN1CCC(n2c(=O)[nH]c3cc(Cl)ccc32)CC1` gave a pKi of less than 5.00.

With `O=C(c1ccc(F)cc1)C1CCN(CCn2c(=O)[nH]c3ccccc3c2=O)CC1` [3-(2-{4-[(4-fluorophenyl)carbonyl]piperidin-1-yl}ethyl)-1,2,3,4-tetrahydroquinazoline-2,4-dione], the pKi was 6.70.

For the compound `NCCc1c[nH]c2ccc(O)cc12` [[3H]-5-HT], the negative logarithm of the Ki (pKi) was 5.30.

For `CN1CCN(CC/C=C2/c3ccccc3Sc3ccc(S(=O)(=O)N(C)C)cc32)CC1` [MLS000028463], the pKi was 5.82.

`OCCN1CCN(CCCN2c3ccccc3Sc3ccc(C(F)(F)F)cc32)CC1` [2-[4-[3-[2-(trifluoromethyl)phenothiazin-10-yl]propyl]piperazin-1-yl]ethanol;hydrochloride] had a pKi of 8.35.

As for `OCCN1CCN(CCCN2c3ccccc3Sc3ccc(Cl)cc32)CC1` [4-[3-(2-chlorophenothiazin-10-yl)propyl]-1-piperazineethanol], the pKi is 7.36.

The pKi is −log10 of the Ki, conventionally taken in molar units. A low value points to a large Ki.
